Patent US5057493A, “Novel antibiotics R106” (priority 1988, dated 1991)
Starred links: 1 amine or outer side, 2 acyl side, 3 side chain; linkers in the order of their positions; H or OH if unused. Non-standard residues stand in square brackets, D forms with d. Residues, ends and D or L forms follow the SMILES beside them. ξ: configuration not given here. ξNMeVal(3-OH) = CNC(C(=O)O)C(C)(C)O; NMeF = CN[CH](Cc1ccccc1)C(=O)O; X1 = CCC(C)C(O[*:1])C(=O)[*:2]; NMeV = CN[CH](C(=O)O)C(C)C; Hiv = CC(C)[CH](O)C(=O)O

Experiments:
[1] = tested on: Candida glabrata TIMM 1062; experiment: MIC by agar dilution method, casitone agar; assay type: cell-based; settings: Table 5
Protocol: (§1) The minimum inhibitory concentration (MIC) of each antibiotic against various fungi was determined by the agar dilution method using casitone agar medium (2.0% glucose, 0.9% bacto-casitone, 1.0% yeast extract, 0.1% KH2 PO4, 0.1% Na2 HPO4, 1.0% sodium citrate, 2.0% agar: concentrations are all by w/v).
(§2) Each minimum growth inhibitory concentration was determined after culturing at 27° C. for 4 days.

[2] = tested on: Cryptococcus neoformans TIMM 0354; experiment: MIC by agar dilution method, casitone agar; assay type: cell-based; settings: Table 5
Protocol: as §1, §2

[3] = 50% lethal dose (LD50) in mice; assay type: in vivo
Source text: All of the antibiotics R106 show low toxicity. The results of 50% lethal dose (LD50) obtained when each of representative compounds of the present invention was given to mice intravenously, intraperitoneally and orally are shown in Table 7.

[4] = tested on: Candida albicans TIMM 1768; experiment: MIC by agar dilution method, casitone agar; assay type: cell-based; settings: Table 5
Protocol: as §1, with “The antibiotics R106 of the present invention are active against various fungi including pathogenic fungi. The” for “The”

[5] = tested on: Candida albicans TIMM 0171; experiment: MIC by agar dilution method, casitone agar; assay type: cell-based; settings: Table 5
Protocol: as §1, with “The antibiotics R106 of the present invention are active against various fungi including pathogenic fungi. The” for “The”

Candida kefyr TIMM 0301 = experiment: MIC by agar dilution method, casitone agar; assay type: cell-based; settings: Table 5
Protocol: as §1, with “The antibiotics R106 of the present invention are active against various fungi including pathogenic fungi. The” for “The”

[6] = tested on: Candida albicans TIMM 0136; experiment: MIC by agar dilution method, casitone agar; assay type: cell-based; settings: Table 5
Protocol: as §1, with “The antibiotics R106 of the present invention are active against various fungi including pathogenic fungi. The” for “The”

SMILES | minimum inhibitory concentration (MIC) [1] | minimum inhibitory concentration (MIC) [2] | LD50 ([3]; i.p.) [mg/kg] | LD50 ([3]; i.v.) [mg/kg] | LD50 ([3]; p.o.) [mg/kg] | minimum inhibitory concentration (MIC) [4] | minimum inhibitory concentration (MIC) [5] | minimum inhibitory concentration (MIC) (Candida kefyr TIMM 0301) | minimum inhibitory concentration (MIC) [6]
CCC(C)C1NC(=O)C2CCCN2C(=O)C(Cc2ccccc2)N(C)C(=O)C(Cc2ccccc2)NC(=O)C(C(C)C)N(C)C(=O)C(C(C)C)OC(=O)C(C(C)(C)O)N(C)C(=O)C(CC(C)C)NC(=O)C(C(C)C)N(C)C1=O (stereo not drawn) [Compound 2] (cyclo([ξNMeVal(3-OH)][Hiv][NMeV]F[NMeF]PI[NMeV]L); configuration not given here) | 0.20 | 1.56 | > 200 | > 100 | > 200 | 0.78 | 0.10 | 0.20 | 0.10
CCC(C)C1NC(=O)C2CCCN2C(=O)C(Cc2ccccc2)N(C)C(=O)C(Cc2ccccc2)NC(=O)C(C(C)C)N(C)C(=O)C(C(C)CC)OC(=O)C(C(C)C)N(C)C(=O)C(CC(C)C)NC(=O)C(C(C)C)N(C)C1=O (stereo not drawn) [Compound 7] (cyclo([X1][NMeV]F[NMeF]PI[NMeV]L[NMeV]); configuration not given here) | > 25 | > 25 | > 200 | > 100 | > 200 | 3.12 | 1.56 | 25 | 3.12
